Source: ChEMBL document CHEMBL4725496, “Escaping from Flatland: Antimalarial Activity of sp-Rich Bridged Pyrrolidine Derivatives” (ACS Med Chem Lett, 2020)

Experiments:
Plasmodium falciparum [1] = assay: Antimalarial activity against chloroquine-sensitive Plasmodium falciparum 3D7 infected in human erythrocytes assessed as reduction in parasitemia incubated for 72 hrs by SYBR green dye based fluorescence assay; type: functional, organism-based; details: 3D7, Erythrocyte
Plasmodium falciparum [2] = assay: Antimalarial activity against chloroquine-sensitive Plasmodium falciparum 3D7 infected in human erythrocytes assessed as reduction in parasitemia at 10 uM incubated for 72 hrs by SYBR green dye based fluorescence assay relative to control; type: functional; details: 3D7, Erythrocyte
[3] = 1-Octanol/phosphate buffered-saline distribution coefficient, logD of compound in pH 7.4 at 75 uM measured after 2 hrs under shaking condition by LC-MS analysis; type: physicochemical
[4] = Kinetic solubility of compound in PBS buffer measured after 2 hrs under shaking condition by UV spectroscopic analysis; type: physicochemical; details: read-out: Kinetic_solubility
[5] = Intrinsic clearance in human liver microsome at 1 uM measured upto 60 mins by LC-MS/MS analysis; type: ADME; details: microsomes, 1 h
[6] = Intrinsic clearance in rat hepatocytes at 1 uM incubated upto 90 mins measured per 10^6 cells by LC-MS/MS analysis; type: ADME, cell-based, Hepatocyte; details: 1.5 h, time 0-90 min
HepG2 = assay: Cytotoxicity against human HepG2 cells incubated for 72 hrs by Cell Titer Glo assay; type: cell-based; details: HepG2, 72 h
Plasmodium falciparum [7] = assay: Antimalarial activity against […] Plasmodium falciparum 3D7 by LDH assay; type: functional, organism-based
Plasmodium falciparum [8] = assay: Antimalarial activity against multi-drug-resistant Plasmodium falciparum Dd2 by LDH assay; type: functional, organism-based

| IC50 (Plasmodium falciparum [1]) [µM] | SMILES | further results |
| --- | --- | --- |
| 5.2 | O=C(NCC12CC(CN1Cc1ccccc1)C2)c1ccc(Cl)c(Br)c1 |  |
| 12.7 | O=C(NCC12CC(CN1Cc1ccccc1)C2)c1ccc(Br)s1 |  |
| 8.8 | O=C(NCC12CC(CN1Cc1ccccc1)C2)c1ccc(Br)cc1Cl |  |
| 8.7 | O=C(NCC12CC(CN1Cc1ccccc1)C2)c1ccc(C(F)(F)F)cc1Cl |  |
| 16 | COc1ccc(C(=O)NCC23CC(CN2Cc2ccccc2)C3)cc1Cl |  |
| 17 | O=C(NCC12CC(CN1Cc1ccccc1)C2)c1ccc2[nH]ccc2c1 |  |
| 5.1 | O=C(NCC12CC(CN1Cc1ccccc1)C2)c1c[nH]c2c(Cl)cccc12 |  |
| 5.7 | COc1cc(C(=O)NCC23CC(CN2Cc2ccccc2)C3)ccc1Br |  |
| 3.3 | O=C(NCC12CC(CN1Cc1ccccc1)C2)c1ccc(Cl)c(C(F)(F)F)c1 |  |
| 3.6 | O=C(NCC12CC(CN1Cc1ccccc1)C2)c1ccc(Br)c(Cl)c1 |  |
| 12.7 | O=C(NCC12CC(CN1Cc1ccccc1)C2)c1ccc(OC(F)(F)F)cc1 |  |
| 9.4 | Cc1cc(C(=O)NCC23CC(CN2Cc2ccccc2)C3)ccc1Br |  |
| 3.6 | COc1ccc2cc(C(=O)NCC34CC(CN3Cc3ccccc3)C4)ccc2c1 |  |
| 1.6 | O=C(NCC12CC(CN1Cc1ccccc1)C2)c1cc2c(Br)cccc2[nH]1 |  |
| 14 | O=C(NCC12CC(CN1Cc1ccccc1)C2)c1ccc2ccccc2c1 |  |
| 13 | O=C(NCC12CC(CN1Cc1ccccc1)C2)c1cccc(Cl)c1 |  |

| IC50 (Plasmodium falciparum [1]) [µM] | SMILES | further results |
| --- | --- | --- |
| 9.4 | O=C(NCC12CC(CN1Cc1ccccc1)C2)c1cccc(OC(F)(F)F)c1 |  |
| 8.9 | O=C(NCC12CC(CN1Cc1ccccc1)C2)c1cc(F)cc(C(F)(F)F)c1 |  |
| 11 | O=C(Cc1ccc(Cl)c(Cl)c1)NCC12CC(CN1Cc1ccccc1)C2 |  |
| 8.5 | C=Cc1ccc(C(=O)NCC23CC(CN2Cc2ccccc2)C3)cc1 |  |
| 12 | O=C(NCC12CC(CN1Cc1ccccc1)C2)c1cc(F)c(Cl)c(F)c1 |  |
| 5.5 | O=C(NCC12CC(CN1Cc1ccccc1)C2)c1ccc2[nH]nc(Br)c2c1 |  |
| 8.5 | O=C(NCC12CC(CN1Cc1ccccc1)C2)c1ccc(F)c(Cl)c1 |  |
| 12 | O=C(NCC12CC(CN1Cc1ccccc1)C2)c1ccc(F)c(Br)c1 |  |
| 19 | Cc1ccc(Cl)cc1C(=O)NCC12CC(CN1Cc1ccccc1)C2 |  |
| 24 | O=C(Cc1ccc(Br)c(F)c1)NCC12CC(CN1Cc1ccccc1)C2 |  |
| 5.1 | O=C(NCC12CC(CN1Cc1ccccc1)C2)c1ccc(Cl)c(Cl)c1 |  |
| 10 | O=C(NCC12CC(CN1Cc1ccccc1)C2)c1ccc(Br)c(F)c1 |  |
| 18 | CSc1ccc(Cl)c(C(=O)NCC23CC(CN2Cc2ccccc2)C3)c1 |  |
| 7.1 | Cn1ccc2ccc(C(=O)NCC34CC(CN3Cc3ccccc3)C4)cc21 |  |
| 1.1 | O=C(NCC12CC(CN1Cc1ccccc1)C2)C1(c2ccc(Cl)cc2Cl)CC1 |  |
| 2.7 | O=C(NCC12CC(CN1Cc1ccccc1)C2)c1cc(Br)cc(C(F)(F)F)c1 |  |

Second part, the compound before the results:

| SMILES | IC50 (Plasmodium falciparum [1]) [µM] | further results |
| --- | --- | --- |
| COc1ccc(NC(=O)OC(C)(C)C)c(C(=O)NCC23CC(CN2Cc2ccccc2)C3)c1 | 6.2 |  |
| O=C(/C=C/c1cccc(F)c1)NCC12CC(CN1Cc1ccccc1)C2 | 22 |  |
| O=C(Cc1cc(F)ccc1F)NCC12CC(CN1Cc1ccccc1)C2 |  | inhibition at 10 µM (Plasmodium falciparum [2]): -8.2% |
| Cc1ccc(-c2cc(C(=O)NCC34CC(CN3Cc3ccccc3)C4)[nH]n2)o1 | 15 |  |
| O=C(NCC12CC(CN1Cc1ccccc1)C2)c1ccc(-c2ccco2)cc1 | 9.4 |  |
| COc1cccc2c(C(=O)NCC34CC(CN3Cc3ccccc3)C4)c[nH]c12 | 19 |  |
| COc1ccc(C2(C(=O)NCC34CC(CN3Cc3ccccc3)C4)CCCC2)cc1 | 9.6 |  |
| O=C(NCC12CC(CN1Cc1ccccc1)C2)C1CC1c1cc(Cl)cc(Cl)c1 (configuration not stated) | 4.5 |  |
| O=C(NCC12CC(CN1Cc1ccccc1)C2)c1ccccc1Cl |  | inhibition at 10 µM (Plasmodium falciparum [2]): -7.9% |
| O=C(/C=C/c1ccc(F)cc1)NCC12CC(CN1Cc1ccccc1)C2 | 13 |  |
| Cc1nn(-c2ccccc2)nc1C(=O)NCC12CC(CN1Cc1ccccc1)C2 | 14 |  |
| Cc1cc2[nH]c(C(=O)NCC34CC(CN3Cc3ccccc3)C4)cc2o1 | 11 |  |
| CC(C)(C)OC(=O)Nc1ccccc1C(=O)NCC12CC(CN1Cc1ccccc1)C2 | 7.2 |  |
| O=C(Cc1ccc(F)c(Br)c1)NCC12CC(CN1Cc1ccccc1)C2 |  | inhibition at 10 µM (Plasmodium falciparum [2]): 40% |
| O=C(NCC12CC(CN1Cc1ccccc1)C2)c1ccc(-n2cccn2)cc1Cl | 19 |  |
| O=C(NCC12CC(CN1Cc1ccccc1)C2)c1cc2cc(Br)ccc2o1 | 3.9 |  |
| O=C(NCC12CC(CN1Cc1ccccc1)C2)c1cccc(Cl)c1Cl |  | inhibition at 10 µM (Plasmodium falciparum [2]): -8.2% |
| O=C(NCC12CC(CN1Cc1ccccc1)C2)c1coc2ccccc12 | 15 |  |
| O=C(/C=C/c1ccccc1Cl)NCC12CC(CN1Cc1ccccc1)C2 | 5.8 |  |

| SMILES | IC50 (Plasmodium falciparum [1]) [µM] | further results |
| --- | --- | --- |
| O=C(/C=C/c1ccccc1F)NCC12CC(CN1Cc1ccccc1)C2 | 11 |  |
| O=C(NCC12CC(CN1Cc1ccccc1)C2)c1cccc(Br)c1 |  | inhibition at 10 µM (Plasmodium falciparum [2]): 35% |
| O=C(NCC12CC(CN1Cc1ccccc1)C2)c1ccc(OCc2ccccc2)cc1 | 6.2 |  |
| CC(C)(C)c1cc(C(=O)NCC23CC(CN2Cc2ccccc2)C3)cc(C(C)(C)C)c1 | 2.6 |  |
| Cc1cc(C(=O)NCC23CC(CN2Cc2ccccc2)C3)no1 | 3.4 |  |
| O=C(NCC12CC(CN1Cc1ccccc1)C2)c1cc(Br)c(Br)s1 | 3.7 |  |
| O=C(NCC12CC(CN1Cc1ccccc1)C2)c1ccc2cccc(Br)c2n1 | 9 |  |
| O=C(NCC12CC(CN1Cc1ccccc1)C2)c1cc(F)ccc1F |  | inhibition at 10 µM (Plasmodium falciparum [2]): 67% |
| Cc1cccc(C(=O)NCC23CC(CN2Cc2ccccc2)C3)c1 |  | inhibition at 10 µM (Plasmodium falciparum [2]): 7.6% |
| O=C(Cc1cccc(C(F)(F)F)c1)NCC12CC(CN1Cc1ccccc1)C2 | 22 |  |
| COc1cccc(C(=O)NCC23CC(CN2Cc2ccccc2)C3)c1C | 15 |  |
| O=C(NCC12CC(CN1Cc1ccccc1)C2)c1ccccc1 |  | inhibition at 10 µM (Plasmodium falciparum [2]): -20% |
| O=C(NCC12CC(CN1Cc1ccccc1)C2)C1(c2ccc(Cl)cc2)CCC1 | 6.2 |  |
| O=C(NCC12CC(CN1Cc1ccccc1)C2)c1cc(Br)cs1 | 22 |  |
| O=C(NCC12CC(CN1Cc1ccccc1)C2)c1ccc(Cl)cc1 |  | inhibition at 10 µM (Plasmodium falciparum [2]): 38% |
| CC(C)(C)OC(=O)N[C@H](C(=O)NCC12CC(CN1Cc1ccccc1)C2)C1CCCCC1 | 24 |  |
| O=C(NCC12CC(CN1Cc1ccccc1)C2)c1cc(Cl)cc(C(F)(F)F)c1 | 1.3 | logD at 2 h, 75 µM [3]: 3.2; solubility kinetic at 2 h [4]: > 200 µM; CLint [5]: 27 µL/min/mg; CLint [6]: 8 µL/min/1e6 cells; IC50 (HepG2): > 17 µM; IC50 (Plasmodium falciparum [7]): 4.3 µM; IC50 (Plasmodium falciparum [8]): 5.4 µM |
| CCCCCCCCCC(=O)NCC12CC(CN1Cc1ccccc1)C2 | 7.4 |  |
| O=C(CCCC1CCCCC1)NCC12CC(CN1Cc1ccccc1)C2 | 13 |  |
